Measurements reported in US20210070735A1, “RIP1 INHIBITORY COMPOUNDS AND METHODS FOR MAKING AND USING THE SAME” (Rigel Pharmaceuticals, Inc., priority 2019, published 2021).

Legend:
[1] = target: T1, RIPK1 (Homo sapiens, UniProt Q13546); assay: RIPK1 ADP-Glo biochemical kinase assay; settings: 30 min at 30° C.
T1 sequence (Q13546 1-671): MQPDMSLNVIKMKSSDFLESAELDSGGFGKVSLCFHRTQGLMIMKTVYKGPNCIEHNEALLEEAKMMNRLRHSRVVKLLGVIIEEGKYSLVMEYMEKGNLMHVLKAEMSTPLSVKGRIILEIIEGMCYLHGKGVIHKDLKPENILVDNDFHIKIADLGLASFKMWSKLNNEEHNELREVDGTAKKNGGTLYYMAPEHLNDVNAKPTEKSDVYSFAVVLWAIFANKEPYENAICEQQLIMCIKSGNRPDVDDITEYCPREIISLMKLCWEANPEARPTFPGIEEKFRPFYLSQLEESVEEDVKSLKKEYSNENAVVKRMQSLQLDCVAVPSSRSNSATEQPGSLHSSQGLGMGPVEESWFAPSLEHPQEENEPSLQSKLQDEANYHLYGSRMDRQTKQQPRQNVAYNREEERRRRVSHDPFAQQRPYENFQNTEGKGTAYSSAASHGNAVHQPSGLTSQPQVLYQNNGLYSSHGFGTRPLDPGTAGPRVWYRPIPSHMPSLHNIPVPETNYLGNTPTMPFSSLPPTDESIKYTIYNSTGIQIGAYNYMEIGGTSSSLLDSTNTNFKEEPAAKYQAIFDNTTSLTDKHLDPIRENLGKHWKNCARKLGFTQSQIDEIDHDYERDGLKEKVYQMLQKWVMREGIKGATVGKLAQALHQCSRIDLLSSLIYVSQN
Protocol: The final reaction volume was 5.0 μl.
Adding 5 μl of ADP-Glo™ terminated the reaction.

[2] = target: T2, murine RIP1 (Mus musculus, UniProt Q60855); assay: L929 cell necroptosis assay (TNFa + zVAD, CellTiter-Glo); format: cell-based
T2 construct: U937 and L929 cells were obtained from the American Type Culture Collection; host or cells: L929
T2 sequence (Q60855 1-656): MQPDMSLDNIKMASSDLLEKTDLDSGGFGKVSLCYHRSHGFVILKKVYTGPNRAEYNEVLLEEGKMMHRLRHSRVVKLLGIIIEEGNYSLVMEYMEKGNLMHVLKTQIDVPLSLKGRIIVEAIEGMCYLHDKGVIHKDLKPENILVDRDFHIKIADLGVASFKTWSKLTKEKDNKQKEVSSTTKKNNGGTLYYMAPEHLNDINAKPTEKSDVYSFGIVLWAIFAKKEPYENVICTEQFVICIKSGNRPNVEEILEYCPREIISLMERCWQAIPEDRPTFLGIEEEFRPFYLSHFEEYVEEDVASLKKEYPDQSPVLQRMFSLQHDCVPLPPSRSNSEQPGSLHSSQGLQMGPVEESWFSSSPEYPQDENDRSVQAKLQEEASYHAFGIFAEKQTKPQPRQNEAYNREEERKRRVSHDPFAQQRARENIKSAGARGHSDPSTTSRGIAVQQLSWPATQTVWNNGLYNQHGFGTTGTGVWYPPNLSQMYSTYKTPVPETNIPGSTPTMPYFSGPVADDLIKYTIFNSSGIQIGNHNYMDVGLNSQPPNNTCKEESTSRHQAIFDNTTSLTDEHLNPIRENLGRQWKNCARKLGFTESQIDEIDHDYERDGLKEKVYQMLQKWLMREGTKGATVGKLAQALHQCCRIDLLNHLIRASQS
Protocol: (§1) In this example, U937 and L929 cells were exposed to compounds of the present disclosure and a cell necroptosis assay was conducted to evaluate the compounds' activity against human RIP1 and murine RIP1.
(§2) U937 and L929 cells were obtained from the American Type Culture Collection (Manassa, Va., USA). Both cells were maintained in logarithmic growth phase in complete RPMI 1640 media (Sigma, ST Louis, Mo., USA) supplemented with 10% fetal bovine serum (Sigma, ST Louis, Mo., USA) at 37° C. with 5% CO2. For necroptosis assay, L929 cells were plated for 18 h in 100 µL/well medium at 10K cells/well in Costar 96-well black clear-bottom plates (Fisher Scientific, Hampton, N.H., USA); U937 cells were plated on the day of the assay in 50 µL/well medium containing 60 uM zVAD-fmk (Lonza, Basel, Switzerland) at 50K cells/well. Medium from L929 cells were removed from the 96-well plates and replaced with 50 µL/well new medium containing 40 uM zVAD-fmk. Each compound of the present disclosure evaluated in this example was serially diluted in DMSO from 2.5 mM in 4-fold dilutions, and then diluted 1:125 in complete medium. 50 µL/well 2× of the compound was then added to the cells in the plates. The cells were pre-incubated with the compound for 1 hour at 37° C. with 5% CO2 and before addition of 10 µL/well 11×TNFa (Peprotech, Rocky Hill, N.J., USA) to give a final concentration of 2 ng/mL for TNFa. The relative amount of necroptosis cells was determined by luminescent using a Wallac Victor2 Luminometer (PerkinElmer, Waltham, Mass., USA) and a CellTiter-Glo® Luminescent Cell Viability Reagent Assay (Promega, Madison, Wis., USA) added per manufacturer instructions after 18 hours of TNFa stimulation at 37° C. with 5% CO2.Results from this example are summarized in Table 2. This example establishes that embodiments of the compounds described herein have unexpectedly potent activity against human RIP1 and murine RIP1, which allows their assessment in in vivo mouse models of disease.

[3] = target: T3, human RIP1 (Homo sapiens, UniProt Q13546); assay: U937 cell necroptosis assay (TNFa + zVAD, CellTiter-Glo); format: cell-based; settings: U937 Zvad TNF CTG Recovery, U937 cells, TNFa 2 ng/mL + zVAD-fmk, 18 hours
T3 construct: U937 and L929 cells were obtained from the American Type Culture Collection; host or cells: U937
T3 sequence (Q13546 1-671): T1 sequence (Q13546 1-671)
Protocol: as §1, §2

Row | IC50 [1] | Compound | IC50 [2] | IC50 [3]
1 | 73 nM | CC(C)(O)C#Cc1ccc2c(c1)NC(=O)[C@@H](NC(=O)c1cc(Oc3ccc(F)cc3)ccn1)CC2 [Compound I-35, (S)-4-(4-Fluorophenoxy)-N-(8-(3-hydroxy-3-methylbut-1-yn-1-yl)-2-oxo-2,3,4,5-tetrahydro-1H-benzo[b]azepin-3-yl)picolinamide] | 1790 nM | 552 nM
2 | 661 nM | O=C(NC1CCc2ccc(CN3CCN(c4ccncc4)CC3)cc2NC1=O)c1cc(Oc2ccccc2)ccn1 (racemic) [Compound I-26, (±)-N-(2-Oxo-8-((4-(pyridin-4-yl)piperazin-1-yl)methyl)-2,3,4,5-tetrahydro-1H-benzo[b]azepin-3-yl)-4-phenoxypicolinamide] |  | 3890 nM
3 | 444 nM | CN1C(=O)C(NC(=O)c2n[nH]c(Cc3ccccc3)n2)CCc2ccc(N3CC4(CCCCC4)C3)cc21 (racemic) [Compound I-12, (±)-5-Benzyl-N-(1-methyl-2-oxo-8-(2-azaspiro[3.5]nonan-2-yl)-2,3,4,5-tetrahydro-1H-benzo[b]azepin-3-yl)-1H-1,2,4-triazole-3-carboxamide] | 43.2 nM | 5.2 nM
4 | 525 nM | CN1C(=O)C(NC(=O)c2n[nH]c(Cc3ccccc3)n2)CCc2ccc(CN3CCN(c4ccncc4)CC3)cc21 (racemic) [Compound I-4, (±)-5-Benzyl-N-(1-methyl-2-oxo-8-((4-(pyridin-4-yl)piperazin-1-yl)methyl)-2,3,4,5-tetrahydro-1H-benzo[b]azepin-3-yl)-1H-1,2,4-triazole-3-carboxamide] |  | 53.9 nM
5 | 229 nM | CN1C(=O)C(NC(=O)c2n[nH]c(Cc3ccccc3)n2)CCc2ccc(C#CC3(O)COC3)cc21 (racemic) [Compound I-16, (±)-5-Benzyl-N-(8-((3-hydroxyoxetan-3-yl)ethynyl)-1-methyl-2-oxo-2,3,4,5-tetrahydro-1H-benzo[b]azepin-3-yl)-1H-1,2,4-triazole-3-carboxamide] | 150 nM | 8.4 nM
6 | 42.7 nM | CN1C(=O)C(NC(=O)c2n[nH]c(Cc3ccccc3)n2)CCc2ccc(C#Cc3ccncc3)cc21 (racemic) [Compound I-19, (±)-5-Benzyl-N-(1-methyl-2-oxo-8-(pyridin-4-ylethynyl)-2,3,4,5-tetrahydro-1H-benzo[b]azepin-3-yl)-1H-1,2,4-triazole-3-carboxamide] | 10 nM | 3.4 nM
7 | 61.2 nM | CN1C(=O)C(NC(=O)n2cc(Cc3ccccc3)cn2)CCc2ccc(N3CC4(CCOCC4)C3)cc21 (racemic) [Compound I-23, (±)-4-Benzyl-N-(1-methyl-2-oxo-8-(7-oxa-2-azaspiro[3.5]nonan-2-yl)-2,3,4,5-tetrahydro-1H-benzo[b]azepin-3-yl)-1H-pyrazole-1-carboxamide] | 212 nM | 1.7 nM
8 | 65.6 nM | O=C(NC1CCc2ccc(CN3CCN(c4ccncc4)CC3)cc2NC1=O)c1ncn(Cc2c(Cl)cccc2Cl)n1 (racemic) [Compound I-5, (±)-1-(2,6-Dichlorobenzyl)-N-(2-oxo-8-((4-(pyridin-4-yl)piperazin-1-yl)methyl)-2,3,4,5-tetrahydro-1H-benzo[b]azepin-3-yl)-1H-1,2,4-triazole-3-carboxamide] |  | 16.4 nM
9 | 34.2 nM | CN1C(=O)[C@@H](NC(=O)c2cc(Oc3ccccc3)ccn2)CCc2ccc(C#CC3(O)COC3)cc21 [Compound I-22, (S)—N-(8-((3-hydroxyoxetan-3-yl)ethynyl)-1-methyl-2-oxo-2,3,4,5-tetrahydro-1H-benzo[b]azepin-3-yl)-4-phenoxypicolinamide] | 8.2 nM | 0.8 nM
10 | 62.4 nM | CN1C(=O)[C@@H](NC(=O)c2n[nH]c(Cc3ccccc3)n2)CCc2ccc(C#CC(C)(C)C)cc21 [Compound I-21, (S)-5-Benzyl-N-(8-(3,3-dimethylbut-1-yn-1-yl)-1-methyl-2-oxo-2,3,4,5-tetrahydro-1H-benzo[b]azepin-3-yl)-1H-1,2,4-triazole-3-carboxamide] | 25.3 nM | 13.4 nM
11 | 54 nM | CN1C(=O)C(NC(=O)c2cc(Oc3ccccc3)ccn2)CCc2ccc(N3CC4(CCOCC4)C3)cc21 (racemic) [Compound I-31, (±)-N-(1-Methyl-2-oxo-8-(7-oxa-2-azaspiro[3.5]nonan-2-yl)-2,3,4,5-tetrahydro-1H-benzo[b]azepin-3-yl)-4-phenoxypicolinamide] | 1680 nM | 17.6 nM
12 |  | CN1C(=O)C(NC(=O)c2nccc(-c3ccccc3)n2)CCc2ccc(CN3CCn4ncnc4C3)cc21 (racemic) [Compound I-39, (±)-N-(8-((5,6-dihydro-[1,2,4]triazolo[1,5-a]pyrazin-7(8H)-yl)methyl)-1-methyl-2-oxo-2,3,4,5-tetrahydro-1H-benzo[b]azepin-3-yl)-4-phenylpyrimidine-2-carboxamide] |  | 216 nM
13 | 806 nM | O=C(NC1CCc2ccc(CN3CCN(c4ccncc4)CC3)cc2NC1=O)c1n[nH]c(Cc2ccccc2)n1 (racemic) [Compound I-7, (±)-5-Benzyl-N-(2-oxo-8-((4-(pyridin-4-yl)piperazin-1-yl)methyl)-2,3,4,5-tetrahydro-1H-benzo[b]azepin-3-yl)-1H-1,2,4-triazole-3-carboxamide] |  | 2650 nM
14 | 330 nM | O=C(NC1CCc2ccc(CN3CCN(c4ccncc4)CC3)cc2NC1=O)c1n[nH]c(Cc2ccccc2)n1 (racemic) [Compound I-6, (±)-5-Benzyl-N-(2-oxo-8-((4-(pyridin-4-yl)piperazin-1-yl)methyl)-2,3,4,5-tetrahydro-1H-benzo[b]azepin-3-yl)-1H-1,2,4-triazole-3-carboxamide] |  | 1460 nM
15 | 808 nM | CN1C(=O)C(NC(=O)c2n[nH]c(Cc3ccccc3)n2)CCc2ccc(N3CCN4CCC3CC4)cc21 (racemic) [Compound I-11, (±)-N-(8-(1,4-Diazabicyclo[3.2.2]nonan-4-yl)-1-methyl-2-oxo-2,3,4,5-tetrahydro-1H-benzo[b]azepin-3-yl)-5-benzyl-1H-1,2,4-triazole-3-carboxamide] |  | 1080 nM
16 | 4460 nM | CN1C(=O)C(NC(=O)c2nccc(-c3ccccc3)n2)CCc2ccc(CN3CCN(c4ccncc4)CC3)cc21 (racemic) [Compound I-38, (±)-N-(1-Methyl-2-oxo-8-((4-(pyridin-4-yl)piperazin-1-yl)methyl)-2,3,4,5-tetrahydro-1H-benzo[b]azepin-3-yl)-4-phenylpyrimidine-2-carboxamide] |  | 6360 nM
